We go through two substances from US10669314B2, “Polypeptide” (Affibody AB, priority 2014, dated 2020).

The subject of experiment [1] is IL-6 triggered serum amyloid-A (SAA) protein release. Description: Serum Amyloid A (SAA) mouse model. The class given is in vivo. Particulars: 25 mg/kg s.c. 9 h before hIL-6 5 μg/kg i.p.; Balb/c mice. As for the experimental part: The IL-6 targeting Z variant Z06814 (SEQ ID NO:1512) and a control Z variant Z04726 (SEQ ID NO:1535) binding an irrelevant target, were cloned and produced in fusion with the ABD variant PP013 (SEQ ID NO:1554) as described in Example 2. Four groups of Balb/c mice (n=8) were injected subcutaneously (s.c.) with various doses (0, 0.025, 2.5 or 25 mg/kg body weight) of Z06814-ABD 9 h prior to intraperitoneal (i.p.) administration of hIL-6 at 5 μg/kg (R&D Systems). A fifth group of mice (n=8) received 25 mg/kg of Z04726-ABD. Two additional control groups of mice received PBS (n=4) and 25 mg/kg of Z06814-ABD (n=8), respectively, but no subsequent IL-6 injection. After 20 h, the blood was taken by cardiac puncture and serum was collected.
Serum was assessed for the content of murine SAA by ELISA (Tridelta) according to the manufacturer's instructions. In brief, diluted serum samples were added to SAA-precoated plates together with anti-SAA-HRP. The plates were incubated for 1 h and then washed four times. TMB substrate was added for 20 min and the reaction was stopped with stop solution. The absorbance was measured at 450 nm using a microplate reader (Victor^3, Perkin Elmer).

Experiment [2] has as its system IL-6 trans-signaling dependent secretion of MCP-1 in HUVECs. Description: HUVEC trans-signaling assay, MCP-1 production. The class given is cell-based, human. Particulars: fusions with ABD variant PP013, in the presence of HSA. How it is done:
To address the trans-signaling pathway, a second assay was used. Herein, human umbilical vein endothelial cells (HUVECs) were stimulated with hIL-6 and soluble hIL-6Rα and the readout was the production of monocyte chemoattractant protein-1 (MCP-1). HUVECs (Lonza) were grown in EGM-2 bullet kit media (Lonza) and passaged in culture no more than eight times. Cells were grown until 75% confluence before use. Cells were detached using trypsin/EDTA (Lonza), resuspended and washed once in fresh medium. Next, cells were counted and dispensed into 96 well flat bottom plates at a density of 2×10^4 cells per well. Cells were cultured overnight at 37° C. in a humidified 5% CO2 atmosphere. […] The pre-mixed solutions with the test molecules and hIL-6/hIL-6Rα were then transferred to wells containing HUVECs, which were incubated for 24 h at 37° C. in a humidified 5% CO2 atmosphere. Cell free supernatant was collected after the incubation period and human MCP-1 levels were determined by sandwich ELISA using the MCP-1 Duoset ELISA development system (R&D Systems).
Half area 96-well ELISA plates were coated with anti-MCP-1 capture antibody (R&D Systems) at a concentration of 1 μg/ml. Plates were incubated overnight at 4° C., washed twice in tap water and blocked for 1 h in PBSC. […] The absorbance was measured at 450 nm using a microplate reader (Victor^3, Perkin Elmer).

As to “Z04726-ABD: control Z variant Z04726 (SEQ ID NO:1553) binding an irrelevant target, in fusion with ABD variant PP013 [reference compound]”, the “SAA protein levels in serum” value in experiment [1] was in the range of 500 to 600 µg/mL.

As to “Z03638: control Z variant binding an irrelevant target, tested in fusion with ABD variant PP013 [reference compound]”, the “inhibition of IL-6 mediated trans-signaling in HUVECs” value in experiment [2] was “did not”.
